For 86 compounds, Ratio and inhibition results are on record in ChEMBL document CHEMBL1671799, “Modelling topoisomerase I inhibition by minor groove binders” (Bioorg Med Chem, 2011).

Activity calls are given as the source filed them. The calls are words filed in the database; no cut-off is given here. A value given as a limit tells only on which side of the number the result lay.

The species entered for this experiment is Bos taurus. The experiment in a line: Inhibition of calf thymus topoisomerase 1 relative to Hoechst 33342.

As for `Cc1ccc(-c2nc3cc(-c4nc5cc(N6CCN(C)CC6)ccc5[nH]4)ccc3[nH]2)cc1`, the Ratio was found to be 1.
Regarding `CN1CCN(c2ccc3[nH]c(-c4ccc5[nH]c(-c6ccccc6)nc5c4)nc3c2)CC1`, the Ratio worked out at 1.
Turning to `c1ccc(-c2ccc3[nH]c(-c4ccc5[nH]c(-c6ccc7[nH]cnc7c6)nc5c4)nc3c2)cc1`, the Ratio was 1.
The same measure, in the same setting: then `CCCc1nc2ccc(-c3nc4cc(-c5ccccc5)ccc4[nH]3)cc2[nH]1`, with 1.
Same read-out and setting: the result for `N#Cc1ccc2[nH]c(-c3ccc4[nH]c(-c5cccc6ccccc56)nc4c3)nc2c1` reads 10.
The same measure, in the same setting: the result for `COc1ccc(-c2nc3cc(CO)ccc3[nH]2)cc1` reads 30000.
Regarding `Nc1ccc2[nH]c(-c3ccc4nc(-c5ccc6nc[nH]c6c5)[nH]c4c3)nc2c1`, the Ratio stood at 1.
On the same count and under the same terms, the result for `Cc1cccc(-c2nc3cc(-c4nc5cc(C(N)=O)ccc5[nH]4)ccc3[nH]2)c1` reads 100; that for `COc1ccc(-c2nc3cc(-c4nc5cc(N)ccc5[nH]4)ccc3[nH]2)cc1`, 100; that for `COc1ccc(-c2nc3cc(-c4nc5cc(CN(C)C)ccc5[nH]4)ccc3[nH]2)cc1`, 2.5.
On the same count and under the same terms, the result for `c1ccc2[nH]c(-c3ccc4[nH]c(-c5ccc6[nH]cnc6c5)nc4c3)nc2c1` reads 1.1; that for `COc1ccc(-c2nc3ccccc3[nH]2)cc1`, greater than 300000; that for `c1ccc(-c2ccc3[nH]c(-c4ccc5[nH]c(-c6ccc7cc[nH]c7c6)nc5c4)nc3c2)cc1`, 5.
Same read-out and setting: the result for `Cc1nc2ccc(-c3nc4cc(-c5ccccc5)ccc4[nH]3)cc2[nH]1` reads 4.
In the case of `COc1ccc(-c2cc3cc([N+](=O)[O-])ccc3[nH]2)cc1`, the inhibition result is “inactive”.
For `c1ccc2c(-c3ccc4[nH]c(-c5ccc6nc[nH]c6c5)nc4c3)cccc2c1`, the Ratio came to 4.
Take `CC(C)c1nc2ccc(-c3nc4cc(-c5ccccc5)ccc4[nH]3)cc2[nH]1`: the Ratio amounted to 1.
Still for that read-out and setting: then `COc1cc2nc(-c3ccc4nc(-c5ccc6nc[nH]c6c5)[nH]c4c3)[nH]c2cc1Br`, with 2; and `c1ccc(-c2cccc3[nH]c(-c4ccc5nc[nH]c5c4)nc23)cc1`, with 10; and `COc1ccc(-c2nc3cc(-c4nc5cc(CCCN(C)C)ccc5[nH]4)ccc3[nH]2)cc1`, with 2.
Turning to `COc1ccc(-c2nc3ccc([N+](=O)[O-])cc3o2)cc1`, the inhibition entry was “inactive”.
For the compound `c1nc2ccc(-c3nc4ccc(-c5nc6cc(N7CCCCC7)ccc6[nH]5)cc4[nH]3)cc2[nH]1`, the Ratio turned out to be 0.5.
On the same count and under the same terms, the result for `O=[N+]([O-])c1ccc2[nH]c(-c3ccc4nc(-c5ccc6nc[nH]c6c5)[nH]c4c3)nc2c1` reads 0.5; that for `c1ccc(-c2ccc3[nH]c(-c4ccc5[nH]c(-c6ccc7[nH]nnc7c6)nc5c4)nc3c2)cc1`, 1.
On the same count and under the same terms, then `FC(F)(F)c1nc2ccc(-c3nc4ccc(-c5nc6cc(Br)c(Br)cc6[nH]5)cc4[nH]3)cc2[nH]1`, with 1.
Same read-out and setting: the result for `CCCc1ccc2[nH]c(-c3ccc4[nH]c(-c5ccc6[nH]cnc6c5)nc4c3)nc2c1` reads 0.5; that for `c1ccc2cc(-c3ccc4[nH]c(-c5ccc6[nH]c(-c7ccc8[nH]cnc8c7)nc6c5)nc4c3)ccc2c1`, 10; that for `Clc1ccc(-c2ccc3[nH]c(-c4ccc5nc[nH]c5c4)nc3c2)cc1`, 4.
`Cc1ccc(-c2nc3cc(-c4nc5cc(C(N)=O)ccc5[nH]4)ccc3[nH]2)cc1`: the Ratio turned out to be 10.
In the case of `Clc1ccc2[nH]c(-c3ccc4nc(-c5ccc6nc[nH]c6c5)[nH]c4c3)nc2c1`, the Ratio is 1.
For `Oc1nc2ccc(-c3nc4cc(-c5nc6cc(-c7ccccc7)ccc6[nH]5)ccc4[nH]3)cc2nc1O`, the Ratio amounted to 1.
For the compound `COc1cc2nc(-c3ccc4nc(-c5ccc6nc[nH]c6c5)[nH]c4c3)[nH]c2cc1-c1ccccc1`, the Ratio amounted to 0.5.
Same read-out and setting: then `Cc1ccccc1-c1nc2cc(-c3nc4cc(N5CCN(C)CC5)ccc4[nH]3)ccc2[nH]1`, with 10; and `c1ccc2c(c1)ccc1[nH]c(-c3ccc4nc[nH]c4c3)nc12`, with 2; and `c1cc(-c2ccc3[nH]c(-c4ccc5[nH]c(-c6ccc7[nH]cnc7c6)nc5c4)nc3c2)ccn1`, with 2.
On the same count and under the same terms, then `CCc1nc2ccc(-c3nc4cc(-c5ccccc5)ccc4[nH]3)cc2[nH]1`, with 2.
Same read-out and setting: the result for `Cc1cccc(-c2nc3cc(-c4nc5cc(C#N)ccc5[nH]4)ccc3[nH]2)c1` reads 100; that for `c1cncc(-c2ccc3[nH]c(-c4ccc5[nH]c(-c6ccc7[nH]cnc7c6)nc5c4)nc3c2)c1`, 2; that for `COc1ccc(-c2nc3cc(-c4nc5cc(C#N)ccc5[nH]4)ccc3[nH]2)cc1`, 3.3.
With `c1ccc2cc(-c3ccc4[nH]c(-c5ccc6nc[nH]c6c5)nc4c3)ccc2c1`, the Ratio amounted to 2.
Same read-out and setting: the result for `COc1ccc(-c2nc3cc([N+](=O)[O-])ccc3[nH]2)cc1` reads 300; that for `N#Cc1ccc2[nH]c(-c3ccc4[nH]cnc4c3)nc2c1`, 1000; that for `Oc1nc2ccc(-c3nc4ccc(-c5nc6ccc(Br)cc6[nH]5)cc4[nH]3)cc2[nH]1`, 1.
The same measure, in the same setting: the result for `NC(=O)c1ccc2[nH]c(-c3ccc4[nH]c(-c5ccccc5)nc4c3)nc2c1` reads 10.
On the same count and under the same terms, then `FC(F)(F)c1nc2ccc(-c3nc4ccc(-c5nc6ccc(-c7ccc(Cl)cc7)cc6[nH]5)cc4[nH]3)cc2[nH]1`, with 1; and `N#Cc1ccc2[nH]c(-c3ccc4[nH]c(-c5ccccc5)nc4c3)nc2c1`, with greater than 100; and `COc1ccc(-c2nc3cc(-c4nc5cc([N+](=O)[O-])ccc5[nH]4)ccc3[nH]2)cc1`, with 1000.
For `c1ccc2cc3[nH]c(-c4ccc5nc[nH]c5c4)nc3cc2c1`, the Ratio amounted to 2000.
For `Clc1nc2ccc(-c3nc4ccc(-c5nc6cc(Br)c(Br)cc6[nH]5)cc4[nH]3)cc2[nH]1`, the Ratio amounted to 1.
Still for that read-out and setting: then `COc1ccc(-c2nc3cc(-c4nc5cc(-c6nc7cc(C#N)ccc7[nH]6)ccc5[nH]4)ccc3[nH]2)cc1`, with 1000; and `COc1ccc(-c2nc3cc(-c4nc5cc(CCN(C)C)ccc5[nH]4)ccc3[nH]2)cc1`, with 5.
Still for that read-out and setting: the result for `COc1ccc2[nH]c(-c3ccc4nc(-c5ccc6nc[nH]c6c5)[nH]c4c3)nc2c1` reads 0.05; that for `Brc1cc2nc(-c3ccc4nc(-c5ccc6nc[nH]c6c5)[nH]c4c3)[nH]c2cc1Br`, 1; that for `COc1ccc(-c2nc3cc(C=O)ccc3[nH]2)cc1`, 300.
Same read-out and setting: the result for `c1ccc(-c2ccc3[nH]c(-c4ccc5[nH]c(-c6ccc7[nH]cnc7c6)nc5c4)nc3c2)nc1` reads 3.3; that for `Brc1ccc2[nH]c(-c3ccc4nc(-c5ccc6nc[nH]c6c5)[nH]c4c3)nc2c1`, 1.
On to `Cc1ccccc1-c1nc2cc(-c3nc4cc(C(N)=O)ccc4[nH]3)ccc2[nH]1`, for which the Ratio was found to be 100.
Still for that read-out and setting: then `NC(=O)c1ccc2[nH]c(-c3ccc4[nH]c(-c5cccc6ccccc56)nc4c3)nc2c1`, with 20; and `Cc1cccc(-c2nc3cc(-c4nc5cc(N6CCN(C)CC6)ccc5[nH]4)ccc3[nH]2)c1`, with 1.
Take `Oc1ccc2[nH]c(-c3ccc4nc(-c5ccc6nc[nH]c6c5)[nH]c4c3)nc2c1`: the Ratio came out at 0.5.
Still for that read-out and setting: the result for `CCCc1nc2ccc(-c3nc4ccc(-c5nc6ccc(Br)cc6[nH]5)cc4[nH]3)cc2[nH]1` reads 1; that for `c1ccc2c(-c3ccc4[nH]c(-c5ccc6[nH]c(-c7ccc8[nH]cnc8c7)nc6c5)nc4c3)cccc2c1`, 10.
For the compound `COc1ccc(-c2nc3ccc([N+](=O)[O-])cc3s2)cc1`, the inhibition entry is “inactive”.
As for `COc1ccc(-c2ccc3[nH]c(-c4ccc5nc[nH]c5c4)nc3c2)cc1`, the Ratio was determined as 1.
Same read-out and setting: the result for `COc1ccc(-c2nc3cc(-c4nc5cc(OC6CCN(C)CC6)ccc5[nH]4)ccc3[nH]2)cc1` reads 2.
Still for that read-out and setting: then `CN1CCN(c2ccc3[nH]c(-c4ccc5[nH]c(-c6ccc7ccccc7c6)nc5c4)nc3c2)CC1`, with 10; and `c1ccc(-c2ccc3[nH]c(-c4ccc5nc(-c6ccccc6)[nH]c5c4)nc3c2)cc1`, with 40; and `COc1ccc(-c2nc3cc(-c4nc5cc(N(C)C)ccc5[nH]4)ccc3[nH]2)cc1`, with 1000.
Still for that read-out and setting: then `N#Cc1ccc2[nH]c(-c3ccc4[nH]c(-c5ccc6ccccc6c5)nc4c3)nc2c1`, with 10; and `COc1ccc(-c2nc3ccc(-c4nc5cc(-c6ccccc6)ccc5[nH]4)cc3[nH]2)cc1`, with 40.
Take `COc1ccc(-c2nc3cc([N+](=O)[O-])ccc3s2)cc1`: the inhibition entry was “inactive”.
In the case of `COc1ccc(-c2nc3cc(C(N)=O)ccc3[nH]2)cc1`, the Ratio stood at 3000.
On the same count and under the same terms, the result for `COc1ccc(-c2nc3cc(C(=O)O)ccc3[nH]2)cc1` reads greater than 300000; that for `Cc1ccc(-c2nc3cc(-c4nc5cc(C#N)ccc5[nH]4)ccc3[nH]2)cc1`, 1.
Regarding `NC(=O)c1ccc2[nH]c(-c3ccc4[nH]c(-c5ccc6ccccc6c5)nc4c3)nc2c1`, the Ratio is 100.
Regarding `COc1ccc(-c2nc3cc([N+](=O)[O-])ccc3o2)cc1`, the inhibition result is “inactive”.
As for `Fc1ccc2[nH]c(-c3ccc4nc(-c5ccc6nc[nH]c6c5)[nH]c4c3)nc2c1`, the Ratio worked out at 0.05.
On the same count and under the same terms, then `c1ccc(-c2ccc3[nH]c(-c4ccc5[nH]c(-c6ccc7[nH]ccc7c6)nc5c4)nc3c2)cc1`, with 50.
On the same count and under the same terms, the result for `COc1ccc(-c2nc3cc(C#N)ccc3[nH]2)cc1` reads greater than 300000; that for `COc1ccc(-c2nc3cc(Br)ccc3[nH]2)cc1`, greater than 300000.
The same measure, in the same setting: then `c1ccc(-c2ccc3[nH]c(-c4ccc5nc[nH]c5c4)nc3c2)cc1`, with 2; and `c1ccc(-c2ccc3[nH]c(-c4ccc5[nH]c(-c6ccc7nccnc7c6)nc5c4)nc3c2)cc1`, with greater than 100.
On to `N#Cc1ccc2[nH]c(-c3ccc4[nH]c(-c5ccc6[nH]cnc6c5)nc4c3)nc2c1`, for which the Ratio amounted to 0.1.
Still for that read-out and setting: then `CN1CCN(c2ccc3[nH]c(-c4ccc5[nH]c(-c6cccc7ccccc67)nc5c4)nc3c2)CC1`, with 20; and `COc1ccc(-c2nc3c([N+](=O)[O-])cccc3[nH]2)cc1`, with greater than 300000.
Regarding `COc1ccc(-c2cc3ccc([N+](=O)[O-])cc3[nH]2)cc1`, the inhibition result is “inactive”.
